According to PMC10743929, “Amphiphilic Sialic Acid Derivatives as Potential Dual-Specific Inhibitors of Influenza Hemagglutinin and Neuraminidase” (International Journal of Molecular Sciences, 2023):
“Also recorded” adds a separate entry of the source. Read-outs that look alike come from different tables or passages of the source. Marks after values point to notes of the source that are not given here.

Columns and labels:
IAV (A/H3N2) = test: CPE reduction assay, influenza A/H3N2 in MDCK cells; type: cell-based, influenza A virus A/H3N2 (A/Victoria/361/11 or A/HK/7/87); settings: Influenza A virus, H3N2, 72 h
Procedure: (§1) The process of CPE reduction assay for the influenza virus was described previously. The virus strains were A/Virginia/ATCC3/2009, A/PR/8 (A/H1N1), A/Victoria/361/11, A/HK/7/87 (A/H3N2), and B/Ned/537/05 (IBV). On day 0, Madin-Darby canine kidney (MDCK) cells in 96-well plates were infected with influenza virus at a multiplicity of infection (MOI) of 0.0004 plaque forming units (PFU) per cell, and that was incubated at 35 °C for 3 days. After the third day, virus-induced CPE and compound cytotoxicity were scored by microscopy, and the data were confirmed by formazan-based MTS cell viability assay (CellTiter 96® AQueous One Solution Cell Proliferation Assay from Promega, Madison, WI, USA). […] Compound cytotoxicity was expressed as the concentration of the compound causing minimal changes in cell morphology (MCC) and 50% cytotoxic concentration (CC50) based on the MTS assay.

IBV = test: CPE reduction assay, influenza B in MDCK cells; type: cell-based, influenza B virus (B/Ned/537/05); settings: Influenza B virus, 72 h
Procedure: as §1

in vitro = settings: dog
IAV (A/H1N1) = test: CPE reduction assay, influenza A/H1N1 in MDCK cells; type: cell-based, influenza A virus A/H1N1 (A/Virginia/ATCC3/2009 or A/PR/8); settings: Influenza A virus, H1N1, 72 h
Procedure: as §1

[1] = test system: Madin-Darby canine kidney (MDCK) cells; settings: dog, 3 days
[2] = Dynamic light scattering of aggregates; settings: RSD of 3 measurements in brackets
H1N1 Neuraminidase = H1N1 Neuraminidase (Influenza A virus, UniProt C3W5S3); test: SPR affinity toward immobilized H1N1 neuraminidase; type: binding, influenza H1N1 (A/California/04/2009); settings: PBST with 5% DMSO, 25 °C
Procedure: (§2) SPR experiments were conducted using a BIAcore S200 instrument (Cytiva, Marlborough, MA, USA) employing a CM5 chip with a carboxymethyldextran surface (Cytiva, USA). Hemagglutinins (ThermoFisher Scientific, Invitrogen, Waltham, MA, USA) from influenza type H3N2 (A/Aichi/2/1968) and H1N1 (A/Puerto Rico/8/34), as well as neuraminidase (Invitrogen, USA) from H1N1 (A/California/04/2009), were immobilized on the chip surface following the standard amine coupling procedure outlined in the manufacturer’s instructions. This immobilization process was performed at a flow rate of 10 μL/min using PBST as the running buffer. The chip surface was initially activated using an N-ethyl-N-(3-dimethylaminopropyl)carbodiimide/N-hydroxysuccinimide solution. Subsequently, 50 μg/mL solutions of individual proteins in 10 mM sodium acetate, pH 5, were injected into channels 2, 3, and 4, respectively. To block any unreacted groups, all channels were treated with 1 M ethanolamine, resulting in a final response of 4500 RU for HAs and 2700 RU for neuraminidase. Channel 1 was activated and blocked in the same manner, without the injection of any protein, serving as a blank.
(§3) Tested compounds in a PBST working buffer (20 mM Na-phosphate, 150 mM NaCl, pH 7.4, 0.005% Tween 20, 5% DMSO) were injected into the chip at a flow rate of 30 μL/min at 25 °C. The injection duration was 3 min, followed by a 10 min buffer flow to facilitate spontaneous dissociation. Each compound was injected as a two-fold dilution series within a concentration range of 0.78–800 μM (2.44–2500 μM for sialic acid). After each compound concentration series, five buffer injections were performed to ensure complete dissociation. To determine the apparent KD toward the immobilized proteins, the steady-state responses of the blank-subtracted curves from each replicate were fitted using a single-site binding model.
(§4) For all experiments, the final KD(app) and Rmax values, along with their standard deviations, were obtained through statistical analysis based on three replicates.

influenza A strains = test: Anti-influenza activity against influenza A strains (H1N1 and H3N2) in MDCK cells; type: cell-based, influenza A virus (H1N1 and H3N2 types); settings: for activity against influenza A strains (in words): MDCK cells, H1N1 and H3N2
Procedure: as §1

H1N1 Hemagglutinin = H1N1 Hemagglutinin (Influenza A virus, UniProt P03452); test: SPR affinity toward immobilized H1N1 hemagglutinin; type: binding, influenza type H1N1 (A/Puerto Rico/8/34); settings: for Kd: KD(app)
H1N1 Hemagglutinin, sequence (P03452 18-565): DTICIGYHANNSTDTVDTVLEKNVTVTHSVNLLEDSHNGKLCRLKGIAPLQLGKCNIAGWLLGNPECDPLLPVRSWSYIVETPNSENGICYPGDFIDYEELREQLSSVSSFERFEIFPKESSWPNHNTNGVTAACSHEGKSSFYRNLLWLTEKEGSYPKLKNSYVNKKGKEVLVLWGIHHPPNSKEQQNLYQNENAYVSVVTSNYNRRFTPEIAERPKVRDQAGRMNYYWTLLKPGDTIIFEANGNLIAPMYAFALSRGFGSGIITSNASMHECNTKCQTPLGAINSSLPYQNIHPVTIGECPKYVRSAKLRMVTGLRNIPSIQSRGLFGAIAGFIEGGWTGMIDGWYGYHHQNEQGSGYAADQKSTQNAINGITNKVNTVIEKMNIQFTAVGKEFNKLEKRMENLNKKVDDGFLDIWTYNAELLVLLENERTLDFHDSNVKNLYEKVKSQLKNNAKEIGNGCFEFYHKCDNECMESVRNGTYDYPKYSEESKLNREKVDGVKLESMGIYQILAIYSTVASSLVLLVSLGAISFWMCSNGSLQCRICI
Procedure: as §2, §3
(§5) In experiments conducted in a DMSO-free buffer (20 mM Na-phosphate, 150 mM NaCl, pH 7.4, 0.005% Tween 20), each replicate was followed by a two-fold dilution series of DMSO, matching the DMSO concentration in the compound solutions. In this case, the steady-state response of the blank-subtracted curve was corrected by the corresponding blank-subtracted DMSO steady-state response. The final values from each replicate were fitted using a single-site binding model using Origin 7 (OriginLab Corporation, Northampton, MA, USA).
as §4

H3N2 Hemagglutinin = H3N2 Hemagglutinin (Influenza A virus, UniProt P03437); test: SPR affinity toward immobilized H3N2 hemagglutinin; type: binding, influenza type H3N2 (A/Aichi/2/1968); settings: for Kd: KD(app)
Procedure: as §2, §3, §5, §4

hemagglutinin = settings: cited from earlier work
[3] = MTS cell viability assay, day 3, read-out: Antiviral EC50, IAV (A/H3N2), MTS
[4] = microscopic scoring of cytopathic effect, day 3, read-out: Antiviral EC50, IAV (A/H3N2), CPE
[5] = MTS cell viability assay, day 3, read-out: Antiviral EC50, IBV, MTS
[6] = microscopic scoring of cytopathic effect, day 3, read-out: Antiviral EC50, IBV, CPE
[7] = MTS cell viability assay, day 3, read-out: Antiviral EC50, IAV (A/H1N1), MTS
[8] = microscopic scoring of cytopathic effect, day 3, read-out: Antiviral EC50, IAV (A/H1N1), CPE
[9] = 0.1 mg/mL (diluted with water), 25 °C
[10] = 1 mg/mL in water/DMSO 9:1, 25 °C
[11] = H1N1 hemagglutinin, absence of DMSO, DMSO-free running buffer
[12] = H3N2 hemagglutinin, absence of DMSO, DMSO-free running buffer

Structure (SMILES)	EC50 (IAV (A/H3N2); [3])	EC50 (IAV (A/H3N2); [4])	EC50 (IBV; [5])	EC50 (IBV; [6])	CC50 (in vitro)	EC50 (IAV (A/H1N1); [7])	EC50 (IAV (A/H1N1); [8])	Cytotoxicity MCC (minimum cytotoxic concentration) [1]	activity against influenza A strains (in words) (influenza A strains)	also measured
CCCCCCCCCCOC1C(OC)OC(COCCOCCOCCOCCn2cc(CSC3(C(=O)O)CC(O)C(NC(C)=O)C(C(O)C(O)CO)O3)nn2)C(OCc2ccc(OC)cc2)C1OCCCCCCCCCC (stereo not drawn) [Compound 12a]	> 100 µM	> 100 µM	> 100 µM	> 100 µM	64 µM	> 100 µM	> 100 µM	20 ^d µM		d (average diameter of particles, DLS) [2, 9]: 170 (15.8%) ^a nm; d (average diameter of particles, DLS) [2, 10]: 126 (2.00%) ^a nm
CCCCOC1C(OC)OC(COCCOCCOCCOCCn2cc(CSC3(C(=O)O)CC(O)C(NC(C)=O)C(C(O)C(O)CO)O3)nn2)C(OCc2ccc(OC)cc2)C1OCCCC (stereo not drawn) [Compound 12c]	> 100 µM	> 100 µM	> 100 µM	> 100 µM	> 100 µM	> 100 µM	> 100 µM	100 ± 0 µM		d (average diameter of particles, DLS) [2, 9]: 111 (14.2%) ^a nm; d (average diameter of particles, DLS) [2, 10]: 103 (28.3%) ^a nm
CCCCCCCCCCOCC1OC(CCCSC2(C(=O)O)CC(O)C(NC(C)=O)C(C(O)C(O)CO)O2)C=CC1OCCCCCCCCCC (stereo not drawn) [Compound 18a]	> 100 µM	> 100 µM	> 100 µM	> 100 µM	10 µM	> 100 µM	> 100 µM	20 ^d µM		
CCCCCCCCOCC1OC(CCCSC2(C(=O)O)CC(O)C(NC(C)=O)C(C(O)C(O)CO)O2)C=CC1OCCCCCCCC (stereo not drawn) [Compound 18b]	6.2 ± 3 µM	4.8 ± 1 µM	> 100 µM	> 100 µM	32 ± 8 µM	23 µM	25 µM	63 ± 19 µM	effective; also recorded: moderate effect	Rmax, H1N1 Neuraminidase (H1N1 Neuraminidase): 166 ± 53 RU; ratio of CC50 to EC50 (selectivity) (influenza A strains; both determined by MTS assay, at best): ≤ 5 factor; Rmax, H1N1 hemagglutinin, absence of DMSO (H1N1 Hemagglutinin; DMSO-free running buffer): 783 ± 8 RU; Kd (H1N1 Hemagglutinin; [11]): 286 ± 19 µM; Rmax, H3N2 hemagglutinin, absence of DMSO (H3N2 Hemagglutinin; DMSO-free running buffer): 925 ± 23 RU; Kd (H3N2 Hemagglutinin; [12]): 357 ± 23 µM
CCCCCCOCC1OC(CCCSC2(C(=O)O)CC(O)C(NC(C)=O)C(C(O)C(O)CO)O2)C=CC1OCCCCCC (stereo not drawn) [Compound 18c]	> 100 µM	> 100 µM	> 100 µM	> 100 µM	> 100 µM	> 100 µM	> 100 µM	100 ^d µM		
CCCCCCCCOCC1OC(OCCOCCOCCOCCOCCCSC2(C(=O)O)CC(O)C(NC(C)=O)C(C(O)C(O)CO)O2)C=CC1OCCCCCCCC (stereo not drawn) [Compound 23a]	> 100 µM	> 100 µM	> 100 µM	> 100 µM	54 µM	> 100 µM	> 100 µM	40 ^d µM	no anti-influenza effect	Rmax, H1N1 Neuraminidase (H1N1 Neuraminidase): 74 ± 13 RU; Rmax, H1N1 hemagglutinin, absence of DMSO (H1N1 Hemagglutinin; DMSO-free running buffer): 197 ± 24 RU; Kd (H1N1 Hemagglutinin; H1N1 Hemagglutinin, PBST with 5% DMSO, 25 °C, steady-state single-site fit): 6220 ± 4040 µM; Kd (H1N1 Hemagglutinin; [11]): 106 ± 36 µM; Rmax, H1N1 Hemagglutinin (H1N1 Hemagglutinin; PBST with 5% DMSO, 25 °C): 505 ± 275 RU; Rmax, H3N2 hemagglutinin, absence of DMSO (H3N2 Hemagglutinin; DMSO-free running buffer): 200 ± 23 RU; Kd (H3N2 Hemagglutinin; H3N2 Hemagglutinin, PBST with 5% DMSO, 25 °C, steady-state single-site fit): 1220 ± 737 µM; Kd (H3N2 Hemagglutinin; [12]): 134 ± 48 µM; Rmax, H3N2 Hemagglutinin (H3N2 Hemagglutinin; PBST with 5% DMSO, 25 °C): 148 ± 43 RU
CCCCCCOCC1OC(OCCOCCOCCOCCOCCCSC2(C(=O)O)CC(O)C(NC(C)=O)C(C(O)C(O)CO)O2)C=CC1OCCCCCC (stereo not drawn) [Compound 23b]	> 100 µM	> 100 µM	> 100 µM	> 100 µM	> 100 µM	> 100 µM	> 100 µM	>100 µM	ineffective	
CO[C@]1(C(=O)O)C[C@H](O)[C@@H](NC(C)=O)[C@H]([C@H](O)[C@H](O)CO)O1 [Methyl α-glycoside of sialic acid]										binding to hemagglutinin (in words) (hemagglutinin): bind weakly
NC(=O)c1ncn([C@@H]2O[C@H](CO)[C@@H](O)[C@H]2O)n1 [Ribavirin, reference compound]	24 ± 4 µM	30 ± 6 µM	5.4 µM	10 ± 4 µM	> 250 µM	25 ± 2 µM	24 ± 6 µM			
COC1(C(=O)O)CC(O)C(NC(C)=O)C(C(O)C(O)CO)O1 (stereo not drawn) [methyl β-glycoside]										binding to hemagglutinin (in words) (hemagglutinin): does not bind at all
